Experimental findings from ChEMBL document CHEMBL1201862, “PubChem BioAssay data set” (2004) are described below.

Assay in all cases: NCI-60 cell line screen, 48 h
The subject of assay [1] is SF-539.
Assay [2] deals with OVCAR-3.
Assay [3] deals with M14.
For assay [4], the system named is SW-620.
Assay [5] concerns SK-OV-3.
Assay [6] has as its system SK-MEL-5.
Assay [7] deals with HCC 2998.
Assay [8] has as its system MDA-MB-435.
Assay [9] concerns RPMI-8226.
For assay [10], the system named is OVCAR-8.
Assay [11] concerns SN12C.
The subject of assay [12] is RXF 393.
The subject of assay [13] is NCI/ADR-RES.
Assay [14] deals with NCI-H460.
Assay [15] relates to 786-0.
For assay [16], the system named is OVCAR-4.
Assay [17] deals with MCF7.
The test system of assay [18] is UO-31.
For assay [19], the system named is MDA-N.
In assay [20] the test system is SR.

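Each compound was tested at five concentrations against cells in 96-well plates for 48 hours. Abbreviation: GI50, concentration required for 50% inhibition of growth.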 The source made the active and inactive calls. Cut-off read from the data, not from the text of the source: active = GI50 up to about 1.1 µM and inactive = higher.

`COc1cc(N(C)C)ccc1C=c1c2ccccc2n2c1cc(-c1ccccc1)[n+]2C`: the GI50 in assay [1] was 0.0813 µM (active); in [2], 0.392 µM (active); in assay [3] it was 0.411 µM (active); in [4], 0.276 µM (active); in assay [5], 0.347 µM (active); in assay [6], 0.637 µM (active). For the same compound, the GI50 in [7] is 0.48 µM (active); in assay [8], 0.358 µM (active); in assay [9] it was 0.151 µM (active); in assay [10], 0.163 µM (active); in assay [11], 0.296 µM (active); in assay [12] it was 0.345 µM (active). The GI50 in assay [13] is 6.47 µM (inactive); in assay [14], 0.294 µM (active); in assay [15], 0.197 µM (active); in assay [16], 0.453 µM (active); in [17] it was 0.302 µM (active); in [18] it was 0.493 µM (active). The GI50 in [19] was 0.308 µM (active).
For the compound `CSC1=NC(C(N)=O)C(N)N1C` (configuration not stated), the GI50 in assay [1], in assay [2], in assay [3], in assay [4], in [5] and in assay [6] was > 100 µM (inactive) in each case. Besides, the GI50 in [8], in [9], in assay [10], in assay [11], in assay [20] and in assay [12] was > 100 µM (inactive) throughout. Besides, the GI50 in [13], in assay [14], in assay [15], in assay [16], in [18] and in assay [19] was > 100 µM (inactive) each time.
Turning to `O=C(COc1ccc(Cl)c(Cl)c1)Nc1ccc[n+](Cc2ccc(S(=O)(=O)F)c(Cl)c2)c1`, the GI50 in assay [1], in [2], in [3], in assay [4], in assay [5] and in assay [6] was > 100 µM (inactive) in each case. For the same compound, the GI50 in assay [8] was > 100 µM (inactive); in assay [9], 1.02 µM (active); in assay [10], > 100 µM (inactive); in [11] it was 98.4 µM (inactive); in [20], 40.6 µM (inactive); in [12] it was > 100 µM (inactive). Also, the GI50 in [13], in [14], in assay [15], in [16], in assay [17] and in assay [18] was > 100 µM (inactive) throughout.
On to `O=C(/C=C/c1c[nH]c2ccccc12)c1ccccc1O`, for which the GI50 in [1] was 12.6 µM (inactive); in assay [2] it was 5.05 µM (inactive); in assay [3] it was 14 µM (inactive); in assay [4] it was 18.5 µM (inactive); in assay [5], 15.1 µM (inactive); in assay [7] it was 11 µM (inactive). The GI50 in [8] was 4.88 µM (inactive); in assay [9] it was 9.27 µM (inactive); in assay [10], 12.9 µM (inactive); in assay [11], 13.8 µM (inactive); in [14], 13.2 µM (inactive); in assay [15], 12.5 µM (inactive). In addition, the GI50 in [16] was 10.7 µM (inactive); in assay [17], 3.1 µM (inactive); in assay [18], 2.82 µM (inactive); in assay [19] it was 5.5 µM (inactive).
`COc1cc(-c2[nH]ccc2Cl)oc1C1=C2N=C3C=C2C(C(C)C)C1CCCCCCCC3` (configuration not stated): the GI50 in [1] is 0.869 µM (active); in assay [2], 0.61 µM (active); in [3], 0.438 µM (active); in assay [4] it was 0.386 µM (active); in assay [5], 1.6 µM (inactive); in assay [6] it was 0.321 µM (active). Besides, the GI50 is 0.341 µM (active) in [7]; 0.401 µM (active) in assay [8]; 0.339 µM (active) in [9]; 0.805 µM (active) in assay [10]; 0.94 µM (active) in assay [11]; 0.292 µM (active) in [20]. For the same compound, the GI50 in assay [12] is 0.904 µM (active); in assay [14], 0.319 µM (active); in assay [15] it was 0.449 µM (active); in assay [16], 0.863 µM (active); in assay [17] it was 0.603 µM (active); in assay [18], 1.03 µM (active). In assay [19], the GI50 was 0.466 µM (active).
As for `CCN(CC)C(=S)N/N=C/c1ccccn1`, the GI50 in [1] is < 0.0382 µM (active); in assay [2], < 0.01 µM (active); in [3] it was 0.0324 µM (active); in assay [4] it was < 0.01 µM (active); in [5], < 0.0192 µM (active); in [6] it was < 0.0174 µM (active). Also, the GI50 was 0.149 µM (active) in assay [7]; 0.12 µM (active) in assay [8]; < 0.01 µM (active) in assay [9]; < 0.01 µM (active) in assay [10]; 0.0212 µM (active) in [11]; < 0.01 µM (active) in [13]. In addition, the GI50 in [14] is 0.0143 µM (active); in assay [15] it was < 0.01 µM (active); in assay [17], < 0.01 µM (active); in [18] it was 0.0415 µM (active); in assay [19] it was 0.166 µM (active).
Take `CC12ON=C(c3ccccc3)N1C=CN1C(c3ccccc3)=NOC12` (configuration not stated): the GI50 in assay [1] is > 100 µM (inactive); in assay [2] it was > 100 µM (inactive); in assay [3] it was > 100 µM (inactive); in assay [5], > 100 µM (inactive); in assay [6], 13 µM (inactive); in assay [7], > 100 µM (inactive). The GI50 was > 100 µM (inactive) in assay [10]; 64.9 µM (inactive) in assay [12]; > 100 µM (inactive) in [13]; > 100 µM (inactive) in assay [14]; > 100 µM (inactive) in assay [15]; > 100 µM (inactive) in assay [17]. Besides, the GI50 in [18] and in assay [19] was > 100 µM (inactive) throughout.
As to `O=c1c(NO)c([N+](=O)[O-])cnn1-c1ccccc1`, the GI50 in assay [1] is 15.2 µM (inactive); in [2], 2.98 µM (inactive); in assay [3] it was 1.99 µM (inactive); in assay [4], 1.75 µM (inactive); in assay [5] it was 7.01 µM (inactive); in assay [6] it was 6 µM (inactive). The GI50 is 5.47 µM (inactive) in assay [7]; 1.88 µM (inactive) in assay [8]; 4.93 µM (inactive) in assay [9]; 2.63 µM (inactive) in assay [10]; 3.08 µM (inactive) in assay [11]; 2.78 µM (inactive) in assay [20]. In addition, the GI50 is 5.92 µM (inactive) in assay [12]; 4.88 µM (inactive) in assay [14]; 6.07 µM (inactive) in assay [15]; 3.81 µM (inactive) in assay [16]; 2.55 µM (inactive) in assay [17]; 5.27 µM (inactive) in assay [18]. Further, the GI50 in assay [19] was 2.29 µM (inactive).
`O=c1cc(N2CCCC2)[nH]c(=O)n1Cc1ccccc1`: the GI50 in [1] is > 100 µM (inactive); in [3], > 100 µM (inactive); in assay [4] it was > 100 µM (inactive); in assay [6] it was > 100 µM (inactive); in assay [7], 8.55 µM (inactive); in assay [8], > 100 µM (inactive). The GI50 in assay [9], in assay [10], in assay [11], in [20], in assay [13] and in assay [14] was > 100 µM (inactive) each time. The GI50 in [15], in assay [16] and in assay [17] was > 100 µM (inactive) each time.
As to `CCCCc1ccc2[n+](c1)C(C(=O)OCC)=PC2` (configuration not stated), the GI50 in [1], in assay [2], in assay [3], in assay [4], in assay [5] and in [6] was > 100 µM (inactive) throughout. The GI50 in assay [7] was > 100 µM (inactive); in assay [8] it was > 100 µM (inactive); in [9], 28.2 µM (inactive); in assay [10] it was > 100 µM (inactive); in assay [11] it was > 100 µM (inactive); in [20] it was 32.7 µM (inactive). Further, the GI50 is 31.9 µM (inactive) in [12]; > 100 µM (inactive) in [14]; 72.1 µM (inactive) in [15]; > 100 µM (inactive) in [16]; 30.7 µM (inactive) in assay [17]; 56.9 µM (inactive) in [19].
Consider `COc1ccc(C(C)c2cc3c(cc2O)OCO3)cc1` (configuration not stated), for which the GI50 in assay [1] was 16.9 µM (inactive); in [2], 13.9 µM (inactive); in [3], 13.8 µM (inactive); in [4], 11.5 µM (inactive); in assay [5], 19.7 µM (inactive); in [6], 14.8 µM (inactive). The GI50 in assay [7] is 7.01 µM (inactive); in [8], 4.56 µM (inactive); in [9], 16.8 µM (inactive); in assay [10], 16.7 µM (inactive); in assay [11], 18.6 µM (inactive); in assay [20], 2.74 µM (inactive). For the same compound, the GI50 in assay [12] was 14.8 µM (inactive); in assay [13], 10.8 µM (inactive); in [14] it was 14.7 µM (inactive); in assay [15] it was 17.9 µM (inactive); in assay [16], 31.3 µM (inactive); in [17] it was 15.1 µM (inactive). Further, the GI50 in assay [18] was 16.2 µM (inactive).
